We go through 16 compounds from patent US8466167B2, “Compounds and compositions as TLR activity modulators” (IRM LLC, priority 2008, dated 2013).

Where two headings read alike, the source gives them in different places. Some results are limits rather than exact numbers.

For assay [1], the target named is T1, human TLR7 (Homo sapiens, UniProt Q9NYK1).
T1 construct: expressed in transfected cells; host or cells: HEK 293
T1 sequence (Q9NYK1 27-1049): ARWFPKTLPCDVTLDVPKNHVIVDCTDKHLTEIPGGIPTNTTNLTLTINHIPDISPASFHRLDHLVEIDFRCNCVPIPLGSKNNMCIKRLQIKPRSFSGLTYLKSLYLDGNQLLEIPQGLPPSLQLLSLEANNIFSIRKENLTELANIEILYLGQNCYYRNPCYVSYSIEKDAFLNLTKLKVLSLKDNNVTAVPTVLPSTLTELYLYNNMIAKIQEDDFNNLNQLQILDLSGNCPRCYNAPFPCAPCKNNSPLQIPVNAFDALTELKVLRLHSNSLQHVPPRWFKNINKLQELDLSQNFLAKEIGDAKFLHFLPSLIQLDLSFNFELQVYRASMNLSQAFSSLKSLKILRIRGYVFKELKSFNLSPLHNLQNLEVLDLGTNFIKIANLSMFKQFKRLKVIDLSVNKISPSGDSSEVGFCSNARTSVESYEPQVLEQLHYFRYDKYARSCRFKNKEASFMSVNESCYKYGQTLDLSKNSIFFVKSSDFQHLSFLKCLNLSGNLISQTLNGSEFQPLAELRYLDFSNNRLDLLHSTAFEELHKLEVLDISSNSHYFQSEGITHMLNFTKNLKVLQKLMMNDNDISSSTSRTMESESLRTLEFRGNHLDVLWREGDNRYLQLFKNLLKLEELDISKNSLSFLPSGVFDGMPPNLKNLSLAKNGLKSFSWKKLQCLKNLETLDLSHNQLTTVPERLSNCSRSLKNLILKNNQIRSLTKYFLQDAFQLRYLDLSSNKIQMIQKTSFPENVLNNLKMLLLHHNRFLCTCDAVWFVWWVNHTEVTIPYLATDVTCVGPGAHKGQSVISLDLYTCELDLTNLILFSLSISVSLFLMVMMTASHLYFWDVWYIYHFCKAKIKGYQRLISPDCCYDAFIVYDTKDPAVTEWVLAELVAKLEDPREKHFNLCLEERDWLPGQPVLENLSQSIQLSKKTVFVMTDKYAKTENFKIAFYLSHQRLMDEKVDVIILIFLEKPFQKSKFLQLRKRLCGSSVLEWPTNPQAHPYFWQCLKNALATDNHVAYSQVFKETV
The assay can be described thus: Reporter gene assay, HEK293-TLR7 (NF-kB-driven luciferase). The format is cell-based. As to conditions: HEK293-TLR7; read-out: EC50 in HEK293-TLR7 assay. As to the method:
(§1) Human embryonic kidney 293 (HEK 293) cells are stably transfected with human TLR7 or TLR8 and an NF-kB-driven luciferase reporter vector (pNifty-Luciferase). As a control assay, normal Hek293 transfected with pNifty-Luc are used. Cells are cultured in DMEM supplemented with 2 mM L-glutamine, 10% heart inactivated FBS, 1% penicillin and streptomycin, 2 μg/ml puromycin (InvivoGen #ant-pr-5) and 5 μg/ml of blasticidin (Invitrogen #46-1120). Bright-Glo™ Luciferase assay buffer and substrate are supplied by Promega #E263B and #E264B (assay substrate and buffer respectively). 384 well clear-bottom plates are supplied by Greiner bio-one (#789163-G) and are GNF custom bar-coded plates.
(§2) Cells are plated at 25,000 cells/well in 384-well plates in a final volume of 50 μl of media. Cells are allowed to adhere to the plates after overnight (18 hours) culture at 37° C. 5% CO2. Serially diluted experimental and positive control compounds are then dispensed to each well and incubated for 7 hours at 37° C. 5% CO2. Cells stimulated with DMSO alone also serve as negative controls. After the incubation, 30 μl of the pre-mix assay buffer and substrate buffer are added to each well according to manufacturer's instructions. The luminescence signal is read on a CLIPR machine with an integration time of 20 seconds per plate.
(§3) Dose response curves are generated for each compound and EC50 values were determined as the concentration that gives 50% of the maximal signal.
Background: A reporter such as luciferase makes a cellular process visible.

Assay [2] concerns the target T2, human TLR8 (Homo sapiens, UniProt Q9NR97).
T2 construct: expressed in transfected cells; host or cells: HEK 293
T2 sequence (Q9NR97 27-1041): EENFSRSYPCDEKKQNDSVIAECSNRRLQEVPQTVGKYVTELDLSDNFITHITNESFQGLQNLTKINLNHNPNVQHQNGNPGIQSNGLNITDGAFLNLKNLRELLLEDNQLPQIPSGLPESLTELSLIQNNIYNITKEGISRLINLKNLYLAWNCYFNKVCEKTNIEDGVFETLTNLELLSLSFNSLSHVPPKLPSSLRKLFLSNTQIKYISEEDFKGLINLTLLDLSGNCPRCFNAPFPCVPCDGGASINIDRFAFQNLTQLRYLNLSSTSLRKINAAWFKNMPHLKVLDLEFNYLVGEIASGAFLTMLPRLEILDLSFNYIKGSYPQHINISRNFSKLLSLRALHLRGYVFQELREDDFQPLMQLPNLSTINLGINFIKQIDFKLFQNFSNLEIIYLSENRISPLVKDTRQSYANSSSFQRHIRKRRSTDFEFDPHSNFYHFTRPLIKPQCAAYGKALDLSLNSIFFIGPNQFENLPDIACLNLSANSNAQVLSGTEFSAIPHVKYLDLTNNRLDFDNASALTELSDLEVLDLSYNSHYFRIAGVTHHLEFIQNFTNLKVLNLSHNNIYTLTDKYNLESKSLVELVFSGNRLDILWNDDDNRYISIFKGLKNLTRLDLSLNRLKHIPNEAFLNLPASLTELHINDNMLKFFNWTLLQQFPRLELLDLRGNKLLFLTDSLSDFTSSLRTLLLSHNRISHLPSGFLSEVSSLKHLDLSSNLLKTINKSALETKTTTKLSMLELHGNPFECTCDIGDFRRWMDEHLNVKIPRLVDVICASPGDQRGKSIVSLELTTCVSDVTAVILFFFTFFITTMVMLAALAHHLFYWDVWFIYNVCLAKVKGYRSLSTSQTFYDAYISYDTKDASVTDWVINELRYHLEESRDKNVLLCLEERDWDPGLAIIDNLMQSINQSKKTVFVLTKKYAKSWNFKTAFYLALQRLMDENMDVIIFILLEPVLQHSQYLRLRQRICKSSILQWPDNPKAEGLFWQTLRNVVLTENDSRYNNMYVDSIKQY
The assay can be described thus: Reporter gene assay, HEK293-TLR8 (NF-kB-driven luciferase). The format is cell-based. The procedure:
as §1, §2, §3

The subject of assay [3] is human PBMC. The assay can be described thus: Human peripheral blood mononuclear cell assay, IL-6 (IL-6 hPBMC). As to conditions: IL-6 levels. Type of assay: cell-based. The procedure: The bioactivity of the described compounds are tested in the human peripheral blood assay (human PBMC) using a panel of independent normal human donors according to approved guidelines by the institutional review committee. Human PBMC are isolated from freshly peripheral blood using a Ficoll density gradient (GE healthcare 17-1440-03). 30-35 mLs of peripheral human blood are layered onto 15 mLs of Ficoll in 50 ml conical tubes, followed by centrifugation at 1800 rpm (Eppendorf Centrifuge 5810R with biohazard caps over the tube buckets) at room temperature for 30 minutes with no acceleration and no brake. The buffy layers are then collected and transferred onto new 50 ml conical tubes and washed twice in complete media consisting of RAMI 1640 (11875085 from Invitrogen Corporation, Carlsbad, Calif.) supplemented with 10% heat inactivated fetal bovine serum (Gibco 10099-141), 1% Pen-Strep (Gibco#15140-122), 1 mM non essential amino acids (Gibco#11140-050), 1 mM sodium pyruvate (Gibco#11360-070), 2 mM L-Glutamine (Gibco#25030-081) and 1 mM HEPES (Gibco#15630-080). Viable cells are then counted using trypan blue staining, plated in 96 well flat bottom plates (Becton Dickinson #353070) at 2×10^5 cells per well in 200 μl total volume of complete media. Compounds are then added in a 10 point dose response format starting at 100 μM, 3 fold dilution. Negative controls wells received equal concentration of DMSO. Culture supernatants are collected after 18-24 hours incubation at 37° C., 5% CO2, stored at −20° C. until further use.
IL-6 levels in the culture supernatants are measured using a Luminex kit (Biorad). Data analysis is performed using Prism software from GraphPad (San Diego, Calif.). Dose response curves are generated for each compound and EC50 values are determined as the concentration that gives 50% of the maximal signal.

In assay [4] the test system is N. meningitidis serogroup B strain NZ98. The assay can be described thus: In vivo enhancement of immune response to 3MenB vaccine, serum bactericidal antibody (SBA) titer. Conditions: 100 μg compound with 3MenB/MF59, NZ98 strain. As to the method:
In a second experiment, the dose response of one compound, Example No. 47, was tested using the same protocol. […] The SBA titers were measured in all cases using the standard CFU method. The dose of each compound in μg is indicated on the left of FIG. 2.
FIG. 5 summarizes the data from the six total experiments. A titer of >1000 correlates with immunization providing protection against the pathogen tested in the SBA titer (i.e., the NZ/98 N. meningitidis serogroup B strain).

Where [5] appears, read: HEK293-TLR8, read-out: EC50 in HEK293-TLR8 assay.
The mark [6] stands for this setting: TLR-8 stimulation, read-out: Human TLR-8 EC50.

With `Nc1nc2ccccc2c2cccnc12` [Example 1, Benzo[f][1,7]naphthyridin-5-amine], the EC50 in assay [1] was more than 100 µM; in assay [2] (setting [5]) it was 14 µM; in assay [3] it was 840 nM.

Take `Cc1ccc2c(c1)nc(N)c1ncccc12` [Example 5, 8-methylbenzo[f][1,7]naphthyridin-5-amine]: the values for the EC50 in assay [1], in assay [2] (setting [5]) and in assay [3] were 15.8 µM, 9.01 µM and 396 nM, respectively.

As to `Nc1nc2cc(F)ccc2c2cccnc12` [Example 14, 8-fluorobenzo[f][1,7]naphthyridin-5-amine], the figures for the EC50 in assay [2] (setting [5]) and in assay [3] were 37 µM and 6380 nM, respectively.

Regarding `CCc1cnc2c(N)nc3ccccc3c2c1` [Example 30, 2-ethylbenzo[f][1,7]naphthyridin-5-amine], the EC50 in assay [1] was 8.64 µM; in assay [2] (setting [5]), 13 µM; in assay [3] it was 2280 nM.

Regarding `Nc1nc2ccccc2c2cc(CCc3ccccc3)cnc12` [Example 33, 2-phenethylbenzo[f][1,7]naphthyridin-5-amine], the figures for the concentration for a half-maximal effect (EC50) in assay [1] and in assay [3] were 2.44 µM and 2280 nM, respectively.

On to `COc1ccc(CCc2cnc3c(N)nc4cc(C)ccc4c3c2)c(C)c1` [Example 49, 2-(4-methoxy-2-methylphenethyl)-8-methylbenzo[f][1,7]naphthyridin-5-amine], for which, in assay [4], the “protective response in the mice (SBA titer of >1000 correlates with protection)” value is “protective response”.

On to `Cc1ccc2c(c1)nc(N)c1ncc(CCc3ccc(CN4CCCC4)cc3)cc12` [Example 177, 8-methyl-2-(4-(pyrrolidin-1-ylmethyl)phenethyl)benzo[f][1,7]naphthyridin-5-amine], for which the EC50 in assay [2] (setting [6]) is 15 µM.

`Cc1ccc2c(c1)nc(N)c1ncc(CCc3ccc(C(C)NCCN(C)C)cc3)cc12` (stereo not drawn) [Example 186, N^1-(1-(4-(2-(5-amino-8-methylbenzo[f][1,7]naphthyridin-2-yl)ethyl)phenyl)ethyl)-N^2,N^2-dimethylethane-1,2-diamine]: in assay [2] (setting [6]), the EC50 came out at 11 µM.

On to `Cc1ccc2c(c1)nc(N)c1ncc(CCc3ccc(C(C)NCCC(=O)O)cc3)cc12` (stereo not drawn) [Example 187, 3-(1-(4-(2-(5-amino-8-methylbenzo[f][1,7]naphthyridin-2-yl)ethyl)phenyl)ethylamino)propanoic acid], for which the EC50 in assay [2] (setting [6]) was 82 µM.

For `Cc1ccc2c(c1)nc(N)c1ncc(CCc3ccc(C(C)N4CCN(C)CC4)cc3)cc12` (stereo not drawn) [Example 188, 8-methyl-2-(4-(1-(4-methylpiperazin-1-yl)ethyl)phenethyl)benzo[f][1,7]naphthyridin-5-amine], the EC50 in assay [2] (setting [6]) was more than 100 µM.

In the case of `Cc1ccc2c(c1)nc(N)c1ncc(CCc3ccc(C(C)NC(C)CN(C)C)cc3)cc12` (stereo not drawn) [Example 189, N^2-(1-(4-(2-(5-amino-8-methylbenzo[f][1,7]naphthyridin-2-yl)ethyl)phenyl)ethyl)-N^1,N^1-dimethylpropane-1,2-diamine], the EC50 in assay [2] (setting [6]) came to 6.2 µM.

Consider `Cc1ccc2c(c1)nc(N)c1ncc(CCc3ccc(C(C)NCCc4ccncc4)cc3)cc12` (stereo not drawn) [Example 190, 8-methyl-2-(4-(1-(2-(pyridin-4-yl)ethylamino)ethyl)phenethyl)benzo[f][1,7]naphthyridin-5-amine], for which the EC50 in assay [2] (setting [6]) was determined as 4.3 µM.

`CCN(CC)CCNC(C)c1ccc(CCc2cnc3c(N)nc4cc(C)ccc4c3c2)cc1` (stereo not drawn) [Example 191, N^1-(1-(4-(2-(5-amino-8-methylbenzo[f][1,7]naphthyridin-2-yl)ethyl)phenyl)ethyl)-N^2,N^2-diethylethane-1,2-diamine]: the EC50 in assay [2] (setting [6]) came to 6 µM.

With `Cc1ccc2c(c1)nc(N)c1ncc(CCc3ccc(C(C)N4CCC(C(=O)O)C4)cc3)cc12` (stereo not drawn) [Example 193, 1-(1-(4-(2-(5-amino-8-methylbenzo[f][1,7]naphthyridin-2-yl)ethyl)phenyl)ethyl)pyrrolidine-3-carboxylic acid], in assay [2] (setting [6]), the EC50 is 24 µM.

Take `Cc1ccc2c(c1)nc(N)c1ncc(CCc3ccc(C(C)N4CCC(O)C4)cc3)cc12` (stereo not drawn) [Example 195, 1-(1-(4-(2-(5-amino-8-methylbenzo[f][1,7]naphthyridin-2yl)ethyl)phenyl)ethyl)pyrrolidin-3-ol]: the EC50 in assay [2] (setting [6]) came to 5.3 µM.

With `Cc1ccc2c(c1)nc(N)c1ncc(CCc3ccc(C(C)(C)N)cc3)cc12` [Example 196, 2-(4-(2-aminopropan-2-yl)phenethyl)-8-methylbenzo[f][1,7]naphthyridin-5-amine], in assay [2] (setting [6]), the EC50 came to 2.6 µM.

For orientation: EC50 means the concentration giving half of the maximal effect.
